Entries after “also recorded” stand apart in the source; their conditions may differ.
Key:
human PBMCs [1] = assay: XTT cytotoxicity test of PBMCs transfected with LPX-formulated EPO mRNA; format: cell-based; details: 24 h, up to 1 μg/well mRNA
Description: Human buffy coats from healthy individuals were obtained from the Faculty of Medicine of Johannes Gutenberg University, Mainz and used to isolate peripheral blood mononuclear cells (PBMCs) on a Ficoll-Paque™ PLUS (Cytiva, Marlborough, MA, USA) density gradient. In preparation for mRNA transfection, cryopreserved PBMCs were thawed and seeded into 96-well plates at a density of 5×10^5 cells per well in 190 μL RPMI medium supplemented with 1% non-essential amino acids (NEAA), 1% sodium pyruvate and 10% Fetal Bovine Serum (Merck, Germany). Cells were maintained at 37° C. with 5% CO2 until transfection with 0.5, 1.5, 5.0 and 15 μg/ml lipoplex-formulated EPO mRNA (LPX-RNA), as described in Kranz, L. M., et al. (2016) Nature, 534, 396-401. The complexed RNA (10 μl per well) was added in triplicates and supernatants were collected at 24 h after transfection to perform single cell cytotoxicity assay and to measure the cytokine/chemokine profile. […] The levels of IL-6 (Interleukin 6), TNF-α (Tumor necrosis factor alpha), IL-1 (Interleukin 1 beta), IFN-γ (Interferon gamma), MCP-1 (Monocyte Chemoattractant Protein-1), […] (Macrophage inflammatory protein 1 beta) and IL-10 (Interleukin 10) were quantified 24 h after the mRNA transfection. […]

human PBMCs [2] = assay: Cytokine/chemokine secretion in human PBMCs (MSD V-PLEX); format: cell-based
Description: Human buffy coats from healthy individuals were obtained from the Faculty of Medicine of Johannes Gutenberg University, Mainz and used to isolate peripheral blood mononuclear cells (PBMCs) on a Ficoll-Paque™ PLUS (Cytiva, Marlborough, MA, USA) density gradient. In preparation for mRNA transfection, cryopreserved PBMCs were thawed and seeded into 96-well plates at a density of 5×10^5 cells per well in 190 μL RPMI medium supplemented with 1% non-essential amino acids (NEAA), 1% sodium pyruvate and 10% Fetal Bovine Serum (Merck, Germany). Cells were maintained at 37° C. with 5% CO2 until transfection with 0.5, 1.5, 5.0 and 15 μg/ml lipoplex-formulated EPO mRNA (LPX-RNA), as described in Kranz, L. M., et al. (2016) Nature, 534, 396-401. The complexed RNA (10 μl per well) was added in triplicates and supernatants were collected at 24 h after transfection to perform single cell cytotoxicity assay and to measure the cytokine/chemokine profile. To determine the cell viability and the production of selected cytokines/chemokines, supernatants from human PBMCs transfected with LPX-RNA were subjected to XTT cytotoxicity test using Cell Proliferation Kit II (Sigma-Aldrich) and cytokine/chemokine profile analysis using the Meso Scale Discovery V-PLEX Custom Human Biomarkers Proinflammatory and Chemokine Panel (Meso Scale Diagnostics—MSD, Rockville, MD, USA) according to the manufacturer's instructions, respectively. In regards of cytokine/chemokine profile analysis, a sample dilution of 1:5 (supernatant:MSD diluent) was used in each experiment. The levels of IL-6 (Interleukin 6), TNF-α (Tumor necrosis factor alpha), IL-1 (Interleukin 1 beta), IFN-γ (Interferon gamma), MCP-1 (Monocyte Chemoattractant Protein-1), […] (Macrophage inflammatory protein 1 beta) and IL-10 (Interleukin 10) were quantified 24 h after the mRNA transfection. […] This low immunogenicity can be directly attributed to the nucleoside modifications incorporated into the mRNA. To illustrate this, cells treated with lipid-complexed U-containing mRNA capped with compound I′-1, CC114 and CC413 induced much higher proinflammatory cytokine/chemokine responses even at their lowest dose (0.5 μg/ml) when compared to m1Ψ-modified mRNA (FIG. 6).
To test the effect of the cap types and mRNA 5′end on immunogenicity in human peripheral blood monocyte cells (PBMCs) we compared changes in levels of cytokines and chemokines after application of Lipoplex (LPX)-formulated EPO mRNAs. First, we compared the impact of m1Ψ-mRNA capped with I′-6 containing a UAGU 5′end vs. CC413 (AGAAU 5′end) (FIG. 12). […] Second, we compared capped EPO uRNA with I′-6 or I′-1 (FIG. 14). In this case both mRNAs had the same TAGT 5′end. […] Thus, benefit of I′-6 in decreasing the immunogenicity and thus increasing safety was found when I′-6 was used.

BALB/c mice = assay: Hematocrit in mice IV injected with 3 μg TransIT-complexed EPO mRNA; format: in vivo
Description: To confirm in vitro data, female BALB/c mice from Jackson Laboratory (Bar Harbor, ME, USA) at the age of eight to ten weeks were used for in vivo experiment in accordance with federal policies on animal research (Ethics approval number: G18-12-027). Mice (n=3/group) were injected intravenously (i.v.) with 3 μg TransIT-complexed (Mirus Bio) EPO mRNAs in a final volume of 200 μL Dulbecco's modified Eagle medium (DMEM). Mice used as controls were injected with TransIT-reagent diluted in DMEM but without RNA. Mice were injected with EPO mRNA complexed with TransIT-reagent and EPO levels in plasma were measured using ELISA (FIG. 8A). Hematocrit was measured from 18 μl of blood that was collected at the indicated times using centrifugation in Drummond microcaps glass capillary tubes (20 μl volume, Merck, Germany) as described (20) (FIG. 8B). After determination of the hematocrit, capillary tubes were snapped open, and the plasma was collected to measure EPO levels and analyzed for mouse Erythropoietin DuoSet ELISA kit (R&D Systems) according to the manufacturer's instructions. […] EPO RNA containing m1Ψ translated two-fold more than U-containing mRNA at each time points (FIG. 8A). Both compound I′-1 and compound I′-6 are suitable for translation of the encoded protein and each cap analog can be used for synthesizing of non-replicating functional mRNAs (FIG. 8A, 8B).
In each in vivo experiment in order to measure the translational efficiency and to determine the functionality of EPO mRNA capped with I′-1, I′-2, I′-3, I′-5, I′-6, I′-9, I′-12, I′-13, I′-16, CC114, and CC413 in vivo, female BALB/c mice from Jackson Laboratory (Bar Harbor, ME, USA) at the age of eight to ten weeks were used for in accordance with federal policies on animal research (Ethics approval number: G19-12-074). In each case, mice (n=3/group) were injected intravenously (i.v.) with 3 μg TransIT-complexed (Mirus Bio) EPO mRNAs in a final volume of 200 μL Dulbecco's modified Eagle medium (DMEM). Mice used as controls were injected with TransIT-reagent diluted in DMEM but without RNA. To measure hematocrits and EPO levels in the individual mice that were injected with EPO mRNA capped with I′-6, I′-1, CC114, and CC413 and complexed with TransIT-reagent, 18 μL of blood was collected at the indicated times (FIG. 8B) and centrifuged in Drummond microcaps glass capillary tubes (20 μl volume, Merck, Germany) as described (19). After determination of the hematocrit, capillary tubes were snapped open, and the plasma was collected to measure EPO levels and analyzed for mouse Erythropoietin DuoSet ELISA kit (R&D Systems) according to the manufacturer's instructions. […] EPO RNA containing m1Ψ modifications translated 2-3-fold, 5-fold, and 10-fold more than U-containing mRNAs at 6-24, 48 and 72 hours after injections, respectively. (FIG. 8A). […] To address translation of I′-6-capped mRNA in human primary hepatocytes, EPO level was measured from supernatants transfected using 0.1 μg/well TransIT-formulated I′-6- or CC114-capped uRNA (FIG. 13).

COC1C(OP(=O)(O)OC[C@H]2O[C@@H](c3cn(C)c(=O)[nH]c3=O)C(O)C2O)[C@@H](COP(=O)(O)OP(=O)([O-])OP(=O)(O)OC[C@H]2O[C@@H](n3c[n+](C)c4c(O)nc(N)nc43)C(O)C2OC)O[C@H]1n1cnc2c(N)ncnc21 (some centres unmarked) [I′-6, m^7G(^3′-OMe)pppA(2′-OMe)pm^1Ψ]
toxic effect on cell viability (XTT) (human PBMCs [1]): no toxic effect
cytokines (IL-6, TNF-α, IL-1β, IFN-γ), compared with I′-1 (human PBMCs [2]; EPO uRNA, same TAGT 5′end, 24 h after application): significantly lower
increase in levels of proinflammatory cytokines and chemokines, compared with CC413 (human PBMCs [2]; LPX-formulated EPO mRNA, across the concentrations tested): less of an increase
MIP-1β, compared with CC413 (human PBMCs [2]; LPX-m1Ψ-mRNA, 0.333 and 1 μg/well (1.7 and 5 μg/ml)): decrease
cytokines (IL-6, TNF-α, IL-1, IFN-γ), compared with CC413 (human PBMCs [2]; LPX-m1Ψ-mRNA, 1 and 3 μg/well (5 and 15 μg/ml)): significant decrease
hematocrit value at 21 days compared with CC413-capped mRNA (BALB/c mice; 21 days after administration): at the same level as the values of D7 and D14
decrease of hematocrit values from D14 (BALB/c mice; D14 after injection): not observed
hematocrit values (BALB/c mice; up to day 21 after injection): very high and further increased after day 14; also recorded: remained very high level

From patent publication US20260109727A1, “RNA CONSTRUCTS AND USES THEREOF” (BioNTech SE, priority 2022, published 2026)
